Reference: patent US20120029038A1, “ANIMAL ECTOPARASITE-CONTROLLING AGENT” (SUMITOMO CHEMICAL COMPANY, LIMITED, priority 2010, published 2012)

Columns and labels:
Type in all cases: in vivo
[1] = tested on: cat fleas (Ctenocephalides felis); test: Dropping application against cat-infested cat fleas
Description: The previous day before dropping application, 50 test fleas (cat flea adults) were deposited on a cat. Before the dropping application, infested fleas were counted.
Each (0.375 g or 1.5 g) of the present hydrazide compounds (5) and (8) and Comparative compound (52) was dissolved in diethylene glycol monoethyl ether (6.0 g) to prepare a test solution. Said test solution was directly dropped on the skin of the neck and back of the cat while pushing aside fur thereon on at a rate of 0.1 ml per 1 kg of the cat's body weight (dose amount: 5 or 20 mg/kg). This is referred to as a test group. On the other hand, diethylene glycol monoethyl ether alone was applied dropwise to a placebo group.
Two (2) days after the application, the number of living fleas, which were infesting the cats, was examined. When the examination was completed, all infested fleas were removed from the cats.
(§1) Fourteen (14) days and 28 days later, 50 test fleas were re-deposited on each cat. Two (2) days after the re-deposit, the number of living fleas, which were infesting the cats, was examined. When the examination was completed, all infested fleas were removed from the cats. The infestation rate and control rate were calculated by the following formulae: […]
(§2) (i) Method of calculating infestation rate and control rate at the initial stage (2 days) after the application:
Infestation rate(%) at X days after application=(number of living fleas at X days/number of living fleas before application)×100
(§3) Control rate(%) at X days after application=(infestation rate of test group before application−infestation rate of test group at X days)/infestation rate of test group before application×100
(§4) (ii) Method of calculating infestation rate and control rate at 16 days and 30 days after the application:
Infestation rate(%) at X days after application−(number of living fleas at X days/number of fleas deposited)×100
(§5) Control rate(%) at X days after the application (infestation rate of placebo group at X days−infestation rate of test group at X days)/infestation rate of placebo group at X days×100
(§6) In addition, if an infestation rate of a test group is higher than a placebo group, then the control rate is deemed to be 0%.

[2] = tested on: ticks (Haemaphysalis longicornis); test: Oral administration against dog-infested ticks; details: oral gelatin capsules, 20 mg/kg
Description: Each of the present hydrazide compounds (5) and (8) and Comparative compound (52) was filled into gelatin capsules, and forcibly and orally administered to a dog in a dose amount of 20 mg per 1 kg of the dog's body weight. This is referred to as a test group. On the other hand, gelatin capsules alone were orally administered to a placebo group.
(§7) Forty two (42) days later, 100 test ticks were deposited on each dog. Two (2) days after the deposit, the number of living ticks, which were infesting the dogs, was examined. When the examination was completed, all infested ticks were removed from the dogs. The infestation rate and control rate were calculated by the following formulae: […]
Method of calculating infestation rate and control rate at 44 days after the administration:
Infestation rate(%) at X days after administration=(number of living ticks at X days/number of ticks deposited)×100
Control rate(%) at X days after administration (infestation rate of placebo group at X days−infestation rate of test group at X days)/infestation rate of placebo group at X days[…]
as §6

[3] = tested on: ticks (Haemaphysalis longicornis); test: Pesticidal activity on ticks in filter paper test; details: 48 h, 100 mg/m^2, non-blood-fed young ticks, 2 days later
Description: Each (5 mg) of the present hydrazide compounds (1), (3) to (5), (8), (10) and (13) was dissolved in acetone (10 mL), and this acetone solution (1 mL) was uniformly applied onto one side of a filter paper (TOYO No. 2; 5×10 cm; the surface area of the filter paper was 50 cm^2, and thus the amount of the present hydrazide compound applied was 100 mg/m^2). After drying, said filter paper was folded, and the both sides of the paper were clipped to form a bag. Into this bag, test ticks (Haemaphysalis longicornis, non-blood-fed young ticks, 10 ticks/group) were added, and the opening was clipped to seal the bag. Two (2) days later, the number of dead ticks was examined and the mortality was calculated by the following formula:
Mortality(%)=100×(number of dead ticks/number of ticks tested)

[4] = tested on: ticks (Haemaphysalis longicornis); test: Dropping application against dog-infested ticks; details: dog (beagle), 20 mg/kg
Description: The previous day before dropping application, 100 test ticks (Haemaphysalis longicornis, young ticks) were deposited on a dog (beagle). Before the dropping application, infested ticks were counted.
Each (1.5 g) of the present hydrazide compounds (5) and (8) was dissolved in diethylene glycol monoethyl ether (6.0 g) to prepare a test solution. Said test solution was directly dropped on the skin of the neck and back of the dog while pushing aside fur thereon at a rate of 0.1 ml per kg of the dog's body weight (dose amount: 20 mg/kg). This is referred to as a test group. On the other hand, diethylene glycol monoethyl ether alone was applied dropwise to a placebo group.
Two (2) days after the application, the number of living ticks, which were infesting the dogs, was examined. When the examination was completed, all infested ticks were removed from the dogs.
as §7, with “Fourteen (14) days and 28” for “Forty two (42)”, “re-deposited” for “deposited”, “re-deposit,” for “deposit,”
as §2
Infestation rate(%) at X days after application=(number of living ticks at X days/number of living ticks before application)×100
as §3, §4
Infestation rate(%) at X days after application=(number of living ticks at X days/number of ticks deposited)×100
as §5, §6

[5] = tested on: cat fleas (Ctenocephalides felis); test: Oral administration against cat-infested cat fleas; details: oral with cat food
Description: The previous day before oral administration, 50 test fleas (cat flea adults) were deposited on a cat. Before the oral administration, infested fleas were counted.
Each of the present hydrazide compounds (5) and (8) was mixed with a cat food, and orally administered to a cat in a dose amount of 5 or 20 mg per 1 kg of the cat's body weight. This is referred to as a test group. On the other hand, the cat food alone was fed to a placebo group.
Two (2) days after the administration, the number of living fleas, which were infesting the cats, was examined. When the examination was completed, all infested fleas were removed from the cats.
as §1, with “Forty two (42)” for “Fourteen (14) days and 28”
(i) Method of calculating infestation rate and control rate at the initial stage (2 days) after the administration:
Infestation rate(%) at X days after administration=(number of living fleas at X days/number of living fleas before administration)×100
Control rate(%) at X days after administration (infestation rate of test group before administration−infestation rate of test group at X days)/infestation rate of test group before administration×100
(ii) Method of calculating infestation rate and control rate at 44 days after the administration:
Infestation rate(%) at X days after administration=(number of living fleas at X days/number of fleas deposited)×100
Control rate(%) at X days after administration (infestation rate of placebo group at X days−infestation rate of test group at X days)/infestation rate of placebo group at X days×100
as §6

[6] = tested on: cat fleas (Ctenocephalides felis); test: Pesticidal activity on cat fleas in filter paper test; details: 48 h
Description: Each (11.3 mg) of the present hydrazide compounds (5) and (8) was dissolved in acetone (5 mL), and this acetone solution ([…]) was uniformly applied onto one side of a filter paper (TOYO No. 2; diameter 3.8 cm; the surface area of the filter paper was 11.3 cm^2, and thus the amount of the present hydrazide compound applied was 400 mg/m^2). After drying, said filter paper was placed on the inside of the lid of a 100 mL vial container. Into the vial container, 20 cat flea adults were released and the lid was closed. The vial container was inverted to force the cat fleas to contact the filter paper. Two (2) days later, the number of dead fleas was examined and the mortality was calculated by the following formula:
(§8) Mortality(%)=100×(number of dead cat fleas/number of cat fleas tested)

[7] = tested on: cat fleas (Ctenocephalides felis); test: Dropping application against mouse-infested cat fleas; details: 0.5% w/v solution 200 μL dropwise along dorsal line, 2 days later
Description: The present hydrazide compound (8) (25 mg) was dissolved in propylene carbonate (5 mL) to prepare a 0.5% w/v solution. Said solution (200 μL) was applied dropwise along the dorsal line of a mouse with a pipette. To a control group, propylene carbonate (200 μL) alone was applied. Each application was repeated 3 times per group.
After the dropping application, 20 cat fleas were deposited on each mouse. Two (2) days later, the number of dead cat fleas was examined and the mortality was calculated by the following formula:
as §8

CC(=O)NNc1cc(C2=NOC(c3cc(Cl)cc(Cl)c3)(C(F)(F)F)C2)ccc1Cl (stereo not drawn) [Comparative compound (52), N′-{5-[5-(3,5-dichlorophenyl)-5-trifluoromethyl-4,5-dihydroisoxazol-3-yl]-2-chlorophenyl}acetohydrazide, reference compound]
Flea control rates (%) at 2 days after the application ([1]; 5 mg/kg): 25%
Flea control rates (%) at 16 days after the application ([1]; 5 mg/kg): 87%
Flea control rates (%) at 30 days after the application ([1]; 5 mg/kg): 58%
Tick control rates (%) at 44 days after the administration [2]: 74%

CCc1ccc(C2=NOC(c3cc(Cl)cc(Cl)c3)(C(F)(F)F)C2)cc1NNC(=O)CC(F)(F)F (stereo not drawn) [(13), N′-{5-[5-(3,5-dichlorophenyl)-5-trifluoromethyl-4,5-dihydroisoxazol-3-yl]-2-ethylphenyl}-3,3,3-propionohydrazide]
mortality at 100 mg/m2 [3]: ≥ 90%

O=C(CCC(F)(F)F)NNc1cc(C2=NOC(c3cc(Cl)cc(Cl)c3)(C(F)(F)F)C2)ccc1Cl (stereo not drawn) [Compound (5), N′-{5-[5-(3,5-dichlorophenyl)-5-trifluoromethyl-4,5-dihydroisoxazol-3-yl]-2-chlorophenyl}-4,4,4-trifluorobutyrohydrazide]
Tick control rates (%) at 2 days after the application [4]: 51%
Tick control rates (%) at 16 days after the application [4]: 100%
Tick control rates (%) at 30 days after the application [4]: 100%
Flea control rates (%) at 2 days after the administration ([5]; 5 mg/kg): 100%
Flea control rates (%) at 44 days after the administration ([5]; 5 mg/kg): 81%
Flea control rates (%) at 2 days after the administration ([5]; 20 mg/kg): 100%
Flea control rates (%) at 44 days after the administration ([5]; 20 mg/kg): 100%
mortality at 400 mg/m2 [6]: ≥ 90%
Flea control rates (%) at 2 days after the application ([1]; 5 mg/kg): 83%
Flea control rates (%) at 16 days after the application ([1]; 5 mg/kg): 100%
Flea control rates (%) at 30 days after the application ([1]; 5 mg/kg): 97%
Flea control rates (%) at 2 days after the application ([1]; 20 mg/kg): 100%
Flea control rates (%) at 16 days after the application ([1]; 20 mg/kg): 100%
Flea control rates (%) at 30 days after the application ([1]; 20 mg/kg): 100%
Tick control rates (%) at 44 days after the administration [2]: 89%

O=C(CCCC(F)(F)F)NNc1cc(C2=NOC(c3cc(Cl)cc(Cl)c3)(C(F)(F)F)C2)ccc1Cl (stereo not drawn) [(10), N′-{2-chloro-5-[5-(3,5-dichlorophenyl)-5-trifluoromethyl-4,5-dihydroisoxazol-3-yl]phenyl}-5,5,5-trifluoropentanohydrazide]
mortality at 100 mg/m2 [3]: ≥ 90%

O=C(CC(F)(F)F)NNc1cccc(C2=NOC(c3cc(Cl)cc(Cl)c3)(C(F)(F)F)C2)c1 (stereo not drawn) [(1), N′-{3-[5-(3,5-dichlorophenyl)-5-trifluoromethyl-4,5-dihydroisoxazol-3-yl]phenyl}-3,3,3-trifluoropropionohydrazide]
mortality at 100 mg/m2 [3]: ≥ 90%

O=C(CC(F)(F)F)NNc1cc(C2=NOC(c3cc(Cl)cc(Cl)c3)(C(F)(F)F)C2)ccc1F (stereo not drawn) [(3), N′-{5-[5-(3,5-dichlorophenyl)-5-trifluoromethyl-4,5-dihydroisoxazol-3-yl]-2-fluorophenyl}-3,3,3-trifluoropropionohydrazide]
mortality at 100 mg/m2 [3]: ≥ 90%

CN(NC(=O)CCC(F)(F)F)c1cc(C2=NOC(c3cc(Cl)cc(Cl)c3)(C(F)(F)F)C2)ccc1Cl (stereo not drawn) [Compound (8), N′-methyl-N′-{2-chloro-5-[5-(3,5-dichlorophenyl)-5-trifluoromethyl-4,5-dihydroisoxazol-3-yl]phenyl}-4,4,4-trifluorobutyrohydrazide]
Tick control rates (%) at 2 days after the application [4]: 31%
Tick control rates (%) at 16 days after the application [4]: 100%
Tick control rates (%) at 30 days after the application [4]: 100%
Flea control rates (%) at 2 days after the administration ([5]; 5 mg/kg): 100%
Flea control rates (%) at 44 days after the administration ([5]; 5 mg/kg): 90%
Flea control rates (%) at 2 days after the administration ([5]; 20 mg/kg): 100%
Flea control rates (%) at 44 days after the administration ([5]; 20 mg/kg): 100%
mortality at 400 mg/m2 [6]: ≥ 90%
Flea control rates (%) at 2 days after the application ([1]; 5 mg/kg): 100%
Flea control rates (%) at 16 days after the application ([1]; 5 mg/kg): 100%
Flea control rates (%) at 30 days after the application ([1]; 5 mg/kg): 97%
Flea control rates (%) at 2 days after the application ([1]; 20 mg/kg): 100%
Flea control rates (%) at 16 days after the application ([1]; 20 mg/kg): 100%
Flea control rates (%) at 30 days after the application ([1]; 20 mg/kg): 100%
Mortality [7]: ≥ 70%
Tick control rates (%) at 44 days after the administration [2]: 93%
